Test results from patent US4590199A, “Antihistaminic 2-(amino ethylamino) pyridines” (priority 1983, dated 1986).

Columns and labels:
[1] = molecular target: T1, histamine response of longitudinal muscle isolated from the intact ileum of guinea-pigs (Cavia porcellus, UniProt P31389); test: In vitro antihistaminic activity (histamine concentration-response curves, Schild plot); format: cell-based, guinea-pig (Hartley, male); details: for Kb: guinea-pig ileum longitudinal muscle, one hour incubation with test compound, Schild plot, read-out: pA2 (converted); for antihistamine activity (in words): of the compounds of formula (I)
T1 construct: The longitudinal muscle was isolated from the intact ileum of guinea-pigs; from tissue; host or cells: longitudinal muscle of guinea-pig ileum (Hartley, male)
Experimental: In vitro antihistaminic activity: The longitudinal muscle was isolated from the intact ileum of guinea-pigs (Hartley, male 250-400 g) and placed in an organ bath under 300 mg tension. After one hour of equilibration, cumulative concentration-response curves (Van Rossum, J. M., Arch. Int. Pharmacodyn. Ther. 143, 299-330, 1963) to histamine were obtained. Following washing, the tissues were incubated for one hour with the test compound and then a second histamine concentration-response curve was run. Shifts to the right of the agonist concentration-response curve produced by the antagonists were used to construct Schild plots (Arunlakshana, O. and Schild, H. O., Br. J. Pharmacol: 14, 48-58, 1959). Regression of Log (dr-1) on Log [B], where dr is an equiactive response in the presence and absence of antagonist and [B] is the molar concentration of antagonist, allowed an estimate of pA2, i.e. the negative log of the concentration of antagonist which shifts the control histamine concentration-response curve 2X to the right.

[2] = antihistamines now in use; causes dryness of mouth, blurred vision and tachycardia; cited from earlier work
[3] = human, in vivo; cited from earlier work

T1 sequence (P31389 whole entry): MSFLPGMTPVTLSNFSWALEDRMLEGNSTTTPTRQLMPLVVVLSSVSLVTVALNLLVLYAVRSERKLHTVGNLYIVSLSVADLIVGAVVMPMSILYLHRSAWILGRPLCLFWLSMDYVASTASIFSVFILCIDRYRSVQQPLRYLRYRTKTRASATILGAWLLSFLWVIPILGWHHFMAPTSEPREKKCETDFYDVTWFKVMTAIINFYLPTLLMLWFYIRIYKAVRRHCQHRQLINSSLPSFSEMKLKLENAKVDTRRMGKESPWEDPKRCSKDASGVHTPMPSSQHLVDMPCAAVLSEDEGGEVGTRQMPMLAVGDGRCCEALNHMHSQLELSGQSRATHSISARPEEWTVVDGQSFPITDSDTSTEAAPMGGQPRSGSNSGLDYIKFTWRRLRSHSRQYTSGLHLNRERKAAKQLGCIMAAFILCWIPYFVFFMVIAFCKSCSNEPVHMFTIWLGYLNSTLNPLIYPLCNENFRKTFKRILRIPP

SMILES | Kb [1] | antihistamine activity (in words) [1] | anticholinergic activity [2] | sedation and drowsiness [3]
COc1ccc(CN(CCN(C)C)c2cccc(/C=C/C(=O)O)n2)cc1 [Compound A, (E)-3-(6-(N-(2-dimethylaminoethyl)-4-methoxybenzylamino)-2-pyridyl)acrylicacid] | 251 nM | particularly active |  | 
COc1ccc(CN(CCN(C)C)c2ccc(C(=O)O)cn2)cc1 [Compound B, 6-(N-(2-dimethylaminoethyl)-4-methoxybenzylamino) nicotinic acid] | 1260 nM | particularly active |  | 
COc1ccc(CN(CCN(C)C)c2ccccn2)cc1 [Pyrilamine, N,N-dimethyl-N'-(4-methoxyphenylmethyl)-N'-2-pyridyl-1,2-ethanediamine] |  |  | varying degrees of anticholinergic activity | produces sedation and drowsiness in varying degrees in most patients
CC(CN1c2ccccc2Sc2ccccc21)N(C)C (centres unmarked) [promethazine] |  |  | varying degrees of anticholinergic activity | 
Cc1ccc(/C(=C\CN2CCCC2)c2ccccn2)cc1 [triprolidine] |  |  | varying degrees of anticholinergic activity | 
